Laboratory results taken from US7863289B2, “Compounds and methods for kinase modulation, and indications therefor” (Plexxikon, Inc., priority 2006, dated 2011).

How the values were obtained:
Type in all cases: biochemical
[1] = biological target: B-Raf (Homo sapiens, UniProt P15056); test: Kinase activity assay, B-Raf; settings: under the test conditions employed; read-out: activity toward kinase B-Raf, IC50
Description: (§1) Assays for the activity of kinases, including, but not limited to, B-Raf, B-Raf V600E, B-Raf […] and c-Raf-1 are known in the art, for example as described in U.S. patent application Ser. No. 11/473,347 (see Iso, PCT publication WO2007002433), the disclosure of which is hereby incorporated by reference in its entirety.

[2] = biological target: B-Raf V600E (Homo sapiens, UniProt P15056, V600E); test: Kinase activity assay, B-Raf V600E; settings: under the test conditions employed; read-out: activity toward kinase B-Raf V600E, IC50
Description: as §1

[3] = biological target: Btk (Homo sapiens, UniProt Q06187); test: Kinase activity assay, Btk; settings: under the test conditions employed; read-out: activity toward kinase Btk, IC50
Description: as §1

[4] = biological target: c-Raf-1 (Homo sapiens, UniProt P04049); test: Kinase activity assay, c-Raf-1; settings: under the test conditions employed; read-out: activity toward kinase c-Raf-1, IC50
c-Raf-1, sequence (P04049 whole entry): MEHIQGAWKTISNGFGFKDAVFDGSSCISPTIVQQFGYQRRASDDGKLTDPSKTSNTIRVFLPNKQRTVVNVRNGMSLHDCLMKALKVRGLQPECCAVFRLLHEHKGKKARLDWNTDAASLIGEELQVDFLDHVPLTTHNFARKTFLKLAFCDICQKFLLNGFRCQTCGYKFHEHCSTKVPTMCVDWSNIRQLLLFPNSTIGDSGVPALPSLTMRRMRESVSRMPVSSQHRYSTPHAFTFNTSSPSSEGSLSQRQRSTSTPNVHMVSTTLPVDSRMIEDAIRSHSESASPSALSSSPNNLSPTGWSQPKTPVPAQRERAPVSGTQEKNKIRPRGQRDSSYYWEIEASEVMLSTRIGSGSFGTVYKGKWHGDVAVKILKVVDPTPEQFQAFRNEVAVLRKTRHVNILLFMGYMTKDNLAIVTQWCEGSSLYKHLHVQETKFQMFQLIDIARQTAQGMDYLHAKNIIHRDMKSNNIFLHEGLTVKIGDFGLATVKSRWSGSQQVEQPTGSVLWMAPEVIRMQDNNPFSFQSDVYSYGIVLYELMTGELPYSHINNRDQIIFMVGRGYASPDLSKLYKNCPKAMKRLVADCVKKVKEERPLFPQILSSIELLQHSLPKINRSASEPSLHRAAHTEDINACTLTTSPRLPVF
Description: as §1

[5] = biological target: Flt1 (Homo sapiens, UniProt P17948); test: Kinase activity assay, Flt1; settings: under the test conditions employed; read-out: activity toward kinase Flt1, IC50
Flt1, sequence (P17948 27-1338): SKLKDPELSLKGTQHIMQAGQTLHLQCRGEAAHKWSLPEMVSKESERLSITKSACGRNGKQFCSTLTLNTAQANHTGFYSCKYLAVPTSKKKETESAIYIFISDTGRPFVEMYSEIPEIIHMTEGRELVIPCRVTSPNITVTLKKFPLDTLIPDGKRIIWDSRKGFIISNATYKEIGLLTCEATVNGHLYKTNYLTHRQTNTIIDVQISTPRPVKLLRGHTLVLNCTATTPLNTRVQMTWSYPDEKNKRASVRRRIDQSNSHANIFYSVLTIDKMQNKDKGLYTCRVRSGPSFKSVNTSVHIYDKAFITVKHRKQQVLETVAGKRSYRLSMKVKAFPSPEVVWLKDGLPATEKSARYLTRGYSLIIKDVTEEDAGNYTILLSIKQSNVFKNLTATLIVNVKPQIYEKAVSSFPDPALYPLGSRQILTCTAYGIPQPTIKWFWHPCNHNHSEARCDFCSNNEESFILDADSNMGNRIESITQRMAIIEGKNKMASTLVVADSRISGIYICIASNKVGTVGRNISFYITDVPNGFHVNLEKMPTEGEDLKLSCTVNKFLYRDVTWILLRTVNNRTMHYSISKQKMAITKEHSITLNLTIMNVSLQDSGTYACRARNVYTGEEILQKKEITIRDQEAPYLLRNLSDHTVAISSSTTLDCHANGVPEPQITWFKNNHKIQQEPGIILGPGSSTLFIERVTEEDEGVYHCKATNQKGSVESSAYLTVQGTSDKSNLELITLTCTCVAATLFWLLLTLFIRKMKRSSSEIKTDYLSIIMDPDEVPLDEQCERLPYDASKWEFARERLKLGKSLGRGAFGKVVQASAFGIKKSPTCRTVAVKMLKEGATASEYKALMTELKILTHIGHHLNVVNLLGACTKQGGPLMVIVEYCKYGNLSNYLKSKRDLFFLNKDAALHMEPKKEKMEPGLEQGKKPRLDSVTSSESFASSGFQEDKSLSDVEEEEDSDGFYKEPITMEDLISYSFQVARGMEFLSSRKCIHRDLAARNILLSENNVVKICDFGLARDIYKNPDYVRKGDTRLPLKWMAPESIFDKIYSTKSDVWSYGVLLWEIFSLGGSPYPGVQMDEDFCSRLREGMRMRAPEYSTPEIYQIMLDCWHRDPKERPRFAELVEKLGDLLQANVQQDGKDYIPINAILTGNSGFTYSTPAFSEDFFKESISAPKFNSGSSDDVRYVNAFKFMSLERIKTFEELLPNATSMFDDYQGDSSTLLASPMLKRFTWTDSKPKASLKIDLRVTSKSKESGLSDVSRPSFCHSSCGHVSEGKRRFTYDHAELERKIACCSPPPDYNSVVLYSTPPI
Description: as §1

[6] = biological target: Fms (Homo sapiens, UniProt P07333); test: Kinase activity assay, Fms; settings: under the test conditions employed; read-out: activity toward kinase Fms, IC50
Fms, sequence (P07333 20-972): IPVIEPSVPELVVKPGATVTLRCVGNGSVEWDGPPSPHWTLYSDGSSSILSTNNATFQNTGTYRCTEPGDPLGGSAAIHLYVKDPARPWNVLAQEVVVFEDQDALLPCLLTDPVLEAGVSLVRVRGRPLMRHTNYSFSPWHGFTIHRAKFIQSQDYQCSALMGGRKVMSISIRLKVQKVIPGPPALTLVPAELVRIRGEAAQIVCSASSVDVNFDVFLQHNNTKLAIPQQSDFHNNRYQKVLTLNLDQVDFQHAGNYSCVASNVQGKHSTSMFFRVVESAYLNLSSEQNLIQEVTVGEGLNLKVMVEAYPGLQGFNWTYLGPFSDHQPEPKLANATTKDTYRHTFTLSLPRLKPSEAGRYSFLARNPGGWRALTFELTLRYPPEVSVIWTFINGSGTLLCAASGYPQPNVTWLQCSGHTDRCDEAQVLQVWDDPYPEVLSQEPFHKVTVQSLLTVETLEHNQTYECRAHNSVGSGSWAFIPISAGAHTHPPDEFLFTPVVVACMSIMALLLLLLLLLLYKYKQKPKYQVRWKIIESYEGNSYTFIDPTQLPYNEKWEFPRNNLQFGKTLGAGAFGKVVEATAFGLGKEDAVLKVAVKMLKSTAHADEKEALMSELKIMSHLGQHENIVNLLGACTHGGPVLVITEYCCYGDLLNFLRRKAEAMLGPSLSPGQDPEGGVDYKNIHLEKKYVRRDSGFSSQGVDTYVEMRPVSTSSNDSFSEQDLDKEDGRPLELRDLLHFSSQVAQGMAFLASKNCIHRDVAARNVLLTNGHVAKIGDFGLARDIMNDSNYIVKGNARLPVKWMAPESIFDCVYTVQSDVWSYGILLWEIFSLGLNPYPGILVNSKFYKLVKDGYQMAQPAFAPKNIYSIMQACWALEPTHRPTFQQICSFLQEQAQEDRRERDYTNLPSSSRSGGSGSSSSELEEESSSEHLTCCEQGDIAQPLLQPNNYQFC
Description: as §1

[7] = biological target: Jnk1 (Homo sapiens, UniProt P45983); test: Kinase activity assay, Jnk1; settings: under the test conditions employed; read-out: activity toward kinase Jnk1, IC50
Description: as §1

[8] = biological target: Kdr (Homo sapiens, UniProt P35968); test: Kinase activity assay, Kdr; settings: under the test conditions employed; read-out: activity toward kinase Kdr, IC50
Kdr, sequence (P35968 20-1356): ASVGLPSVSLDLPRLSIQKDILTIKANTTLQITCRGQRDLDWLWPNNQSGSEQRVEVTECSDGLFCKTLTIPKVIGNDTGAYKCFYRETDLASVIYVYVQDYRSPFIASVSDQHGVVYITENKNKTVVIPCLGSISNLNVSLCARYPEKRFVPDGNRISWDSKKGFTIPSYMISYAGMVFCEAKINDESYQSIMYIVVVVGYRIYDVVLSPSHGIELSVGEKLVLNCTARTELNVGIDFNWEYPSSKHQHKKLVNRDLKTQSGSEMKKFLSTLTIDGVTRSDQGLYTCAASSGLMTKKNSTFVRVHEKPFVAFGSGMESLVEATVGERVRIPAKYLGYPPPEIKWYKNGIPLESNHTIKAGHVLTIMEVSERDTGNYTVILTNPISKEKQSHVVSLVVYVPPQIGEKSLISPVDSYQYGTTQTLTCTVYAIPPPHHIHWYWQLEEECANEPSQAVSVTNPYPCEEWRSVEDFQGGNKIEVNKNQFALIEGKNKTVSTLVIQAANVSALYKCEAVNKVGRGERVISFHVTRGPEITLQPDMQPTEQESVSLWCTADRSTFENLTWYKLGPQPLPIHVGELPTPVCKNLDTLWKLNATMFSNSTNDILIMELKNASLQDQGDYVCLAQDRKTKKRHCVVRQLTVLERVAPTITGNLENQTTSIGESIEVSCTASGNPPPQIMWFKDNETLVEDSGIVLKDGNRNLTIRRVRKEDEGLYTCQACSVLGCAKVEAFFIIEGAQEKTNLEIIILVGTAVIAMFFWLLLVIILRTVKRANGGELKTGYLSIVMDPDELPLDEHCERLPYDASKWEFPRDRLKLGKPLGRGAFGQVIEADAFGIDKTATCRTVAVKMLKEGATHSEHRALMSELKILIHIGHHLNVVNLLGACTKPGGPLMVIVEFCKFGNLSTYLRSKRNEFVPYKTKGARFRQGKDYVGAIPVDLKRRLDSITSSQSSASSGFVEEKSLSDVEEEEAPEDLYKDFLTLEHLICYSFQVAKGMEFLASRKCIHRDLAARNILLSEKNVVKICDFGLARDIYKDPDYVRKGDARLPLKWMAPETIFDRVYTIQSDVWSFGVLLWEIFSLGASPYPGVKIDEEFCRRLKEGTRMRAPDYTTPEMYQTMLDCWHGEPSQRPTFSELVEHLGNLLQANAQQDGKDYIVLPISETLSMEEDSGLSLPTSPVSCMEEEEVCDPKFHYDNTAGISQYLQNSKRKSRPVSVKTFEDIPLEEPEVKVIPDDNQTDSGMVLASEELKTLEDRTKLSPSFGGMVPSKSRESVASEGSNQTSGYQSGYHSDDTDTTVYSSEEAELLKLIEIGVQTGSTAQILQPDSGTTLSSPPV
Description: as §1

[9] = biological target: Kit (Homo sapiens, UniProt P10721); test: Kinase activity assay, Kit; settings: under the test conditions employed; read-out: activity toward kinase Kit, IC50
Description: as §1

[10] = biological target: Src (Homo sapiens, UniProt P12931); test: Kinase activity assay, Src; settings: under the test conditions employed; read-out: activity toward kinase Src, IC50
Src, sequence (P12931 whole entry): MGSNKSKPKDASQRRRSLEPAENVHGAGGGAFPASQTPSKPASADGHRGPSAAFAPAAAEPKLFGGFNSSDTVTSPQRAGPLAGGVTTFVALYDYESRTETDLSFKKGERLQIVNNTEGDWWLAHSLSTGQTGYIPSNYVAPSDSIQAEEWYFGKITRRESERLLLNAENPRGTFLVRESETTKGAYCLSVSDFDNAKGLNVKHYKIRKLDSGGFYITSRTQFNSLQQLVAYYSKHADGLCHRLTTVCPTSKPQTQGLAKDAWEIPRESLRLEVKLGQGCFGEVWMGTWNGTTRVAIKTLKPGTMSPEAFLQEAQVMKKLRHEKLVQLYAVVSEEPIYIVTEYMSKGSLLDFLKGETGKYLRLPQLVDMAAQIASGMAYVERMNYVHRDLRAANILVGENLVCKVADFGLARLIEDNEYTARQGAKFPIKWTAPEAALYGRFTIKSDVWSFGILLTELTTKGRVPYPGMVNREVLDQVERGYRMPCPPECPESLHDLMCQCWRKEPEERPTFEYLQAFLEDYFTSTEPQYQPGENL
Description: as §1

[11] = biological target: HGK (Homo sapiens, UniProt O95819); test: Kinase activity assay, HGK; settings: under the test conditions employed; read-out: activity toward kinase HGK, IC50
Description: as §1

[12] = biological target: T1, TEC (Homo sapiens, UniProt P42680); test: Kinase activity assay, TEC; settings: under the test conditions employed; read-out: activity toward kinase TEC, IC50
T1 sequence (P42680 1-631): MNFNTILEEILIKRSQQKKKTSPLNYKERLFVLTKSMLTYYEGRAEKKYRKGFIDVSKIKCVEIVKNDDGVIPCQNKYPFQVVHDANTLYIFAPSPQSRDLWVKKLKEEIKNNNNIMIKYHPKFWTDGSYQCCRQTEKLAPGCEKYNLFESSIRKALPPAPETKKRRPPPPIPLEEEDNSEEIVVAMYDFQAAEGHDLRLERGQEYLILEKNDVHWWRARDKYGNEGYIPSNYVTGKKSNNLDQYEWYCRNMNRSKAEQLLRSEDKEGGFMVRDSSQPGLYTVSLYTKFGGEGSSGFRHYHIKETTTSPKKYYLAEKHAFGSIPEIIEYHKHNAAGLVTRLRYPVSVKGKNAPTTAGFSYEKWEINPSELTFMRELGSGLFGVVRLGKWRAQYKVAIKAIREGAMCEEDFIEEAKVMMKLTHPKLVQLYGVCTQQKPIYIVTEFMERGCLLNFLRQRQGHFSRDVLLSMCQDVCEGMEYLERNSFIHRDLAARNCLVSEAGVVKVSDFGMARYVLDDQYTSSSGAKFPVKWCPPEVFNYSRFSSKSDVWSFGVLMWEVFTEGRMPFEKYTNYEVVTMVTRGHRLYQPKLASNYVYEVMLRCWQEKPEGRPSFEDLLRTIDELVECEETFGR
Description: as §1

Measured: IC50

Cn1cc(-c2cnc3[nH]cc(C(=O)c4c(F)ccc(NS(=O)(=O)c5cccc(OC(F)F)c5)c4F)c3c2)cn1 [Compound P-0020]
not listed: [12]
≤ 10 µM: all other assays above

O=C(c1c(F)ccc(NS(=O)(=O)c2cccc(OC(F)F)c2)c1F)c1c[nH]c2ncc(Cl)cc12 [Compound P-0016, N-[3-(5-Chloro-1H-pyrrolo[2,3-b]pyridine-3-carbonyl)-2,4-difluoro-phenyl]-3-difluoromethoxy-benzenesulfonamide]
not listed: [3] | [7] | [11]
≤ 10 µM: all other assays above
